Data taken from ChEMBL document CHEMBL6078713, “Synthesis and mechanistic studies of 4-aminoquinoline-Isatin molecular hybrids and Schiff's bases as promising antimicrobial agents” (Eur J Med Chem, 2025).
≈ marks a conversion by molar mass, not a printed value. Calls of active or inactive are those of the source. The rule behind the calls is not given here.

What was measured:
[1] = tested on: Escherichia coli; experiment: Antibacterial activity against Escherichia coli MTCC 443 assessed as diameter of zone of inhibition at 500 ug/ml by agar disk diffusion method; format: functional; conditions: read-out: DIZ
[2] = tested on: Enterococcus faecalis; experiment: Antibacterial activity against Enterococcus faecalis MTCC 439 assessed as diameter of zone of inhibition at 500 ug/ml by agar disk diffusion method; format: functional; conditions: read-out: DIZ
[3] = tested on: Staphylococcus aureus; experiment: Antibacterial activity against Staphylococcus aureus MTCC 902 assessed as diameter of zone of inhibition at 500 ug/ml by agar disk diffusion method; format: functional; conditions: read-out: DIZ
[4] = tested on: Pseudomonas aeruginosa; experiment: Antibacterial activity against Pseudomonas aeruginosa MTCC 2453 assessed as diameter of zone of inhibition at 500 ug/ml by agar disk diffusion method; format: functional; conditions: read-out: DIZ
[5] = tested on: Escherichia coli; experiment: Antibacterial activity against Escherichia coli MTCC 443 assessed as inhibition of bacterial growth incubated overnight by serial dilution based spectrophotometer; format: functional
[6] = tested on: Enterococcus faecalis; experiment: Antibacterial activity against Enterococcus faecalis MTCC 439 assessed as inhibition of bacterial growth incubated overnight by serial dilution based spectrophotometer; format: functional
[7] = tested on: Bacillus subtilis; experiment: Antibacterial activity against Bacillus subtilis MTCC 736 assessed as inhibition of bacterial growth incubated overnight by serial dilution based spectrophotometer; format: functional
[8] = tested on: Staphylococcus aureus; experiment: Antibacterial activity against Staphylococcus aureus MTCC 902 assessed as inhibition of bacterial growth incubated overnight by serial dilution based spectrophotometer; format: functional
[9] = tested on: Pseudomonas aeruginosa; experiment: Antibacterial activity against Pseudomonas aeruginosa MTCC 2453 assessed as inhibition of bacterial growth incubated overnight by serial dilution based spectrophotometer; format: functional
[10] = tested on: Salmonella typhi; experiment: Antibacterial activity against Salmonella typhi assessed as inhibition of bacterial growth incubated overnight by serial dilution based spectrophotometer; format: functional, Salmonella enterica subsp. enterica serovar Typhi; conditions: Salmonella enterica
[11] = tested on: Escherichia coli; experiment: Bactericidal activity against Escherichia coli MTCC 443 assessed as inhibition of bacterial growth incubated overnight; format: functional
[12] = tested on: Enterococcus faecalis; experiment: Bactericidal activity against Enterococcus faecalis MTCC 439 assessed as inhibition of bacterial growth incubated overnight; format: functional
[13] = tested on: Staphylococcus aureus; experiment: Bactericidal activity against Staphylococcus aureus MTCC 902 assessed as inhibition of bacterial growth incubated overnight; format: functional
[14] = tested on: Pseudomonas aeruginosa; experiment: Bactericidal activity against Pseudomonas aeruginosa MTCC 2453 assessed as inhibition of bacterial growth incubated overnight; format: functional
[15] = tested on: Enterococcus faecalis; experiment: Ratio of MBC for antibacterial activity against Enterococcus faecalis MTCC 439 to MIC for bactericidal activity against Enterococcus faecalis MTCC 439; format: functional
[16] = tested on: Staphylococcus aureus; experiment: Ratio of MBC for antibacterial activity against Staphylococcus aureus MTCC 902 to MIC for bactericidal activity against Staphylococcus aureus MTCC 902; format: functional
[17] = tested on: Pseudomonas aeruginosa; experiment: Ratio of MBC for antibacterial activity against Pseudomonas aeruginosa MTCC 2453 to MIC for bactericidal activity against Pseudomonas aeruginosa MTCC 2453; format: functional
[18] = tested on: Escherichia coli; experiment: Antibacterial activity against Escherichia coli MTCC 443 assessed as diameter of zone of inhibition at 0.5 times MIC incubated overnight by disk diffusion method; format: functional
[19] = tested on: Enterococcus faecalis; experiment: Antibacterial activity against Enterococcus faecalis MTCC 439 assessed as diameter of zone of inhibition at 0.5 times MIC incubated overnight by disk diffusion method; format: functional
[20] = tested on: Staphylococcus aureus; experiment: Antibacterial activity against Staphylococcus aureus MTCC 902 assessed as diameter of zone of inhibition at 0.5 times MIC incubated overnight by disk diffusion method; format: functional
[21] = tested on: Pseudomonas aeruginosa; experiment: Antibacterial activity against Pseudomonas aeruginosa MTCC 2453 assessed as diameter of zone of inhibition at 0.5 times MIC incubated overnight by disk diffusion method; format: functional
[22] = tested on: Salmonella typhi; experiment: Antibacterial activity against Salmonella typhi assessed as diameter of zone of inhibition at 0.5 times MIC incubated overnight by disk diffusion method; format: functional, Salmonella enterica subsp. enterica serovar Typhi
[23] = tested on: Escherichia coli; experiment: Antibacterial activity against Escherichia coli MTCC 443 assessed as diameter of zone of inhibition at MIC incubated overnight by disk diffusion method; format: functional
[24] = tested on: Enterococcus faecalis; experiment: Antibacterial activity against Enterococcus faecalis MTCC 439 assessed as diameter of zone of inhibition at MIC incubated overnight by disk diffusion method; format: functional
[25] = tested on: Bacillus subtilis; experiment: Antibacterial activity against Bacillus subtilis MTCC 736 assessed as diameter of zone of inhibition at MIC incubated overnight by disk diffusion method; format: functional
[26] = tested on: Staphylococcus aureus; experiment: Antibacterial activity against Staphylococcus aureus MTCC 902 assessed as diameter of zone of inhibition at MIC incubated overnight by disk diffusion method; format: functional
[27] = tested on: Pseudomonas aeruginosa; experiment: Antibacterial activity against Pseudomonas aeruginosa MTCC 2453 assessed as diameter of zone of inhibition at MIC incubated overnight by disk diffusion method; format: functional
[28] = tested on: Salmonella typhi; experiment: Antibacterial activity against Salmonella typhi assessed as diameter of zone of inhibition at MIC incubated overnight by disk diffusion method; format: functional, Salmonella enterica subsp. enterica serovar Typhi
[29] = tested on: Escherichia coli; experiment: Antibacterial activity against Escherichia coli MTCC 443 assessed as diameter of zone of inhibition at 2 times MIC incubated overnight by disk diffusion method; format: functional
[30] = tested on: Enterococcus faecalis; experiment: Antibacterial activity against Enterococcus faecalis MTCC 439 assessed as diameter of zone of inhibition at 2 times MIC incubated overnight by disk diffusion method; format: functional
[31] = tested on: Bacillus subtilis; experiment: Antibacterial activity against Bacillus subtilis MTCC 736 assessed as diameter of zone of inhibition at 2 times MIC incubated overnight by disk diffusion method; format: functional
[32] = tested on: Staphylococcus aureus; experiment: Antibacterial activity against Staphylococcus aureus MTCC 902 assessed as diameter of zone of inhibition at 2 times MIC incubated overnight by disk diffusion method; format: functional
[33] = tested on: Pseudomonas aeruginosa; experiment: Antibacterial activity against Pseudomonas aeruginosa MTCC 2453 assessed as diameter of zone of inhibition at 2 times MIC incubated overnight by disk diffusion method; format: functional
[34] = tested on: Salmonella typhi; experiment: Antibacterial activity against Salmonella typhi assessed as diameter of zone of inhibition at 2 times MIC incubated overnight by disk diffusion method; format: functional, Salmonella enterica subsp. enterica serovar Typhi
[35] = tested on: Escherichia coli; experiment: Synergistic antibacterial activity against Escherichia coli MTCC 443 assessed as inhibition of bacterial growth incubated overnight in presence of ciprofloxacin by serial dilution based spectrophotometer; format: functional
[36] = tested on: Enterococcus faecalis; experiment: Synergistic antibacterial activity against Enterococcus faecalis MTCC 439 assessed as inhibition of bacterial growth incubated overnight in presence of ciprofloxacin by serial dilution based spectrophotometer; format: functional
[37] = tested on: Staphylococcus aureus; experiment: Synergistic antibacterial activity against Staphylococcus aureus MTCC 902 assessed as inhibition of bacterial growth incubated overnight in presence of ciprofloxacin by serial dilution based spectrophotometer; format: functional
[38] = tested on: Pseudomonas aeruginosa; experiment: Synergistic antibacterial activity against Pseudomonas aeruginosa MTCC 2453 assessed as inhibition of bacterial growth incubated overnight in presence of ciprofloxacin by serial dilution based spectrophotometer; format: functional
[39] = tested on: Escherichia coli; experiment: Synergistic antibacterial activity against Escherichia coli MTCC 443 assessed as fractional inhibitory concentration index incubated overnight in presence of ciprofloxacin by microdilution checkerboard assay; format: functional
[40] = tested on: Enterococcus faecalis; experiment: Synergistic antibacterial activity against Enterococcus faecalis MTCC 439 assessed as fractional inhibitory concentration index incubated overnight in presence of ciprofloxacin by microdilution checkerboard assay; format: functional
[41] = tested on: Staphylococcus aureus; experiment: Synergistic antibacterial activity against Staphylococcus aureus MTCC 902 assessed as fractional inhibitory concentration index incubated overnight in presence of ciprofloxacin by microdilution checkerboard assay; format: functional
[42] = tested on: Pseudomonas aeruginosa; experiment: Synergistic antibacterial activity against Pseudomonas aeruginosa MTCC 2453 assessed as fractional inhibitory concentration index incubated overnight in presence of ciprofloxacin by microdilution checkerboard assay; format: functional
[43] = tested on: Pseudomonas aeruginosa; experiment: Antibacterial activity against Pseudomonas aeruginosa MTCC 2453 assessed as inhibition of bacterial growth incubated overnight by spectrophotometry relative to control; format: functional
[44] = tested on: Enterococcus faecalis; experiment: Antibacterial activity against Enterococcus faecalis MTCC 439 assessed as inhibition of bacterial growth incubated overnight by spectrophotometry relative to control; format: functional
[45] = tested on: Bacillus subtilis; experiment: Antibacterial activity against Bacillus subtilis MTCC 736 assessed as inhibition of bacterial growth incubated overnight by spectrophotometry relative to control; format: functional
[46] = tested on: Staphylococcus aureus; experiment: Antibacterial activity against Staphylococcus aureus MTCC 902 assessed as inhibition of bacterial growth incubated overnight by spectrophotometry relative to control; format: functional
[47] = tested on: Staphylococcus aureus; experiment: Bacteriostatic activity against Staphylococcus aureus MTCC 902 assessed as reduction in bacterial growth at 2 times MIC measured upto 24 hrs by absorbance based assay; format: functional, organism-based
[48] = tested on: Escherichia coli; experiment: Bacteriostatic activity against Escherichia coli MTCC 443 assessed as reduction in bacterial growth at 2 times MIC measured upto 10 hrs by absorbance based assay; format: functional, organism-based
[49] = tested on: Staphylococcus aureus; experiment: Bacteriostatic activity against Staphylococcus aureus MTCC 902 assessed as reduction in bacterial growth at 2 times MIC measured upto 10 hrs by absorbance based assay; format: functional, organism-based
[50] = tested on: Escherichia coli; experiment: Bacteriostatic activity against Escherichia coli MTCC 443 assessed as reduction in log phase of bacterial growth at 0.5 to 1 times MIC measured upto 24 hrs by absorbance based assay; format: functional, organism-based
[51] = tested on: Staphylococcus aureus; experiment: Bacteriostatic activity against Staphylococcus aureus MTCC 902 assessed as reduction in bacterial growth at 0.5 to 1 times MIC measured upto 24 hrs by absorbance based assay; format: functional, organism-based

## O=C1Nc2ccc(Cl)cc2/C1=N/CCNc1ccnc2cc(Cl)ccc12
[1]
  zone of inhibition at 500 µg/mL: 11 mm
[2]
  zone of inhibition at 500 µg/mL: 8 mm
[3]
  zone of inhibition at 500 µg/mL: 10 mm
[4]
  zone of inhibition at 500 µg/mL: 12 mm
[5]
  MIC: 256 µg/mL (≈ 664 µM)
[6]
  MIC: 512 µg/mL (≈ 1330 µM)
[7]
  MIC: > 512 µg/mL
[8]
  MIC: 256 µg/mL (≈ 664 µM)
[9]
  MIC: 128 µg/mL (≈ 332 µM)
[10]
  MIC: > 512 µg/mL
[11]
  MBC: > 512 µg/mL
[12]
  MBC: 512 µg/mL (≈ 1330 µM)
[13]
  MBC: 256 µg/mL (≈ 664 µM)
[14]
  MBC: 128 µg/mL (≈ 332 µM)
[15]
  Ratio: 1
[16]
  Ratio: 1
[17]
  Ratio: 1
[18]
  diameter of the inhibition zone (DIZ): 11 mm
[19]
  diameter of the inhibition zone (DIZ): 12 mm
[20]
  diameter of the inhibition zone (DIZ): 13 mm
[21]
  diameter of the inhibition zone (DIZ): 13 mm
[22]
  diameter of the inhibition zone (DIZ): 13 mm
[23]
  diameter of the inhibition zone (DIZ): 12 mm
[24]
  diameter of the inhibition zone (DIZ): 17 mm
[25]
  diameter of the inhibition zone (DIZ): 6 mm
[26]
  diameter of the inhibition zone (DIZ): 15 mm
[27]
  diameter of the inhibition zone (DIZ): 18 mm
[28]
  diameter of the inhibition zone (DIZ): 10 mm
[29]
  diameter of the inhibition zone (DIZ): 11 mm
[30]
  diameter of the inhibition zone (DIZ): 19 mm
[31]
  diameter of the inhibition zone (DIZ): 8 mm
[32]
  diameter of the inhibition zone (DIZ): 16 mm
[33]
  diameter of the inhibition zone (DIZ): 20 mm
[34]
  diameter of the inhibition zone (DIZ): 11 mm
[35]
  MIC: 32 µg/mL
[36]
  MIC: 64 µg/mL
[37]
  MIC: 64 µg/mL
[38]
  MIC: 8 µg/mL
[39]
  fractional inhibitory concentration index (FICI): 0.249
[40]
  fractional inhibitory concentration index (FICI): 1.125
[41]
  fractional inhibitory concentration index (FICI): 1.25
[42]
  fractional inhibitory concentration index (FICI): 1.062
[43]
  inhibition (INH): >80%
[44]
  inhibition (INH): >80%
[45]
  inhibition (INH): >80%
[46]
  inhibition (INH): >80%
[47]
  Activity: inactive
[48]
  Activity: Active
[49]
  Activity: Active
[50]
  Activity: Active
[51]
  Activity: inactive
